Experimental data published in patent US8530470B2, “Chromenone derivatives” (Astrazeneca AB, priority 2011, dated 2013).
Read-outs that look alike come from different tables or passages of the source.

Experiments:
PI3Kβ = PI3Kβ (Homo sapiens, UniProt P42338); assay: In vitro enzyme inhibition assay (Kinase Glo), PI3Kβ; type: biochemical
Experimental: (§1) (a) In Vitro Enzyme Inhibition Assay
(§2) The inhibition of PI3Kβ, PI3Kα, PI3Kγ and PI3Kδ was evaluated in a Kinase Glo based enzyme activity assay using human recombinant enzymes. The assay measures depletion of ATP after incubation with enzyme, PIP2 and ATP plus compound. ATP at the end of the reaction is detected by addition of Kinase Glo reagent, in this the Ultra Glo™ luciferase (Promega) uses the ATP as a substrate to catalyze the mono-oxygenation of luciferin and the generation of light. A direct relationship exists between the luminescence measured with the Kinase-Glo Plus Reagent and the amount of ATP remaining in a completed kinase reaction and luminescence is inversely related to kinase activity. Twelve different compound concentrations were tested and raw data from the inhibition of PI3Kβ, PI3Kα, PI3Kγ and PI3Kδ was plotted versus inhibitor concentration.
(§3) Compounds in 100% DMSO were added to assay plates by acoustic dispensing. PI3β was added in a Tris buffer (50 mM Tris pH7.4, 0.05% CHAPS, 2.1 mM DTT, and 10 mM MgCl2) and allowed to preincubate with compound for 20 min prior to addition of substrate solution containing PIP2 and ATP. The enzyme reaction was stopped after 80 min by the addition of Kinase Glo detection solution. […] The final concentration of DMSO, ATP and PIP2 in the assay were, 1%, 8 μM, and 80 μM respectively.
(§4) IC50 values were calculated using a log curve fitting to a non-linear regression package, fitting raw data to inhibitor concentration.

PI3Kδ = PI3Kδ (Homo sapiens, UniProt O00329); assay: In vitro enzyme inhibition assay (Kinase Glo), PI3Kδ; type: biochemical; settings: Test (a)
Experimental: as §1, §2, §3, §4

[1] = tested on: phospho AKT (ser473) in MDA-MB-468 cells; assay: Detection of phospho AKT (ser473) in MDA-MB-468 cells; type: cell-based; settings: Homo sapiens, Test (b), 2 hours incubation, approximate value, read-out: IC50 versus cellular phospho AKT (ser473) in MDA-MB-468 cells
Experimental: (b) Protocol for Detection of Phospho AKT (ser473) in MDA-MB-468 Cells
MDA-MB-468 cells (human breast adenocarcinoma ATCC HTB 132) are seeded into Greiner 384 well black flat-bottomed plates by automated cell culture robot (Selec T). Cells can also be maintained manually and seeded into plates using multidrop or Wellmate. Cells seeded at 1500 cell/well in 40 μl of DMEN containing 10% FCS and 1% glutamine. Cell plates are incubated for 18 hours in a 37° C. incubator.
Compounds are dosed onto cells using an Echo acoustic dispenser, which dispenses nl quantities of compound or DMSO. Compounds are dosed in a 12 point concentration range from 30 μM top dose, 28 compounds are dosed on one plate. There are 17 DMSO only positive control wells per plate, and 16 negative control well which have been dosed with a concentration of reference compound that will knockout the pAKT signal.
Plates are incubated at 37° C. for 2 hours, cells are the fixed by the addition of 10 μl of a 3.7% Formaldehyde solution in a fume cupboard using a Wellmate.
After 30 min to allow for fixation, the fixative and media are removed and the plates washed with Proclin PBS/A using Tecan PW384 plate washer in a fume cupboard. Wells are blocked and permeabilised with the addition of 40 μl of PBS containing 0.5% Tween20 and 1% marvel using a Wellmate and incubated for 60 min at room temperature.
Permeabilisation and blocking buffer removed using Tecan PW384 plate washer, then 20 μl primary antibody solution added using a Wellmate. The primary antibody solution is a 1:500 dilution of Rabbit anti-phospho AKT Ser 473 (Cell signalling technologies catalogue number #3787) in PBS/T containing 1% marvel (dried milk powder) and incubated overnight at 4° C.
Plates are washed using a Tecan PW384 plate washer three times with Phosphate Buffered Saline+0.05% (v/v) Polysorbate20 and Proclin300 (Supelco). 20 μl of secondary antibody solution is then added to each well using a Wellmate and incubated for 1 hour at Room Temp. The secondary antibody solution is a 1:1000 dilution of Alexa Fluor 488 anti-Rabbit (Molecular Probes cat no A11008) diluted in Phosphate Buffered Saline+0.05% (v/v) Polysorbate20 containing 1% marvel. Plates are washed three times as before then […] added to each well and plates sealed with black plate sealer.
The plates are read on an Acumen reader as soon as possible. Using this system IC50 values can be generated and quality of plates determined by control wells. Reference compounds are run each time to monitor assay performance.

[2] = Test (a), approximate value, read-out: IC50 versus PI3Kβ
[3] = Test (a), human recombinant enzyme, ATP 8 μM, PIP2 80 μM, Table A, read-out: PI3Kβ inhibition, IC50
[4] = approximate value, read-out: IC50 versus PI3Kδ
[5] = human recombinant enzyme, Table A, read-out: PI3Kδ inhibition, IC50

PI3Kδ, sequence (O00329 whole entry): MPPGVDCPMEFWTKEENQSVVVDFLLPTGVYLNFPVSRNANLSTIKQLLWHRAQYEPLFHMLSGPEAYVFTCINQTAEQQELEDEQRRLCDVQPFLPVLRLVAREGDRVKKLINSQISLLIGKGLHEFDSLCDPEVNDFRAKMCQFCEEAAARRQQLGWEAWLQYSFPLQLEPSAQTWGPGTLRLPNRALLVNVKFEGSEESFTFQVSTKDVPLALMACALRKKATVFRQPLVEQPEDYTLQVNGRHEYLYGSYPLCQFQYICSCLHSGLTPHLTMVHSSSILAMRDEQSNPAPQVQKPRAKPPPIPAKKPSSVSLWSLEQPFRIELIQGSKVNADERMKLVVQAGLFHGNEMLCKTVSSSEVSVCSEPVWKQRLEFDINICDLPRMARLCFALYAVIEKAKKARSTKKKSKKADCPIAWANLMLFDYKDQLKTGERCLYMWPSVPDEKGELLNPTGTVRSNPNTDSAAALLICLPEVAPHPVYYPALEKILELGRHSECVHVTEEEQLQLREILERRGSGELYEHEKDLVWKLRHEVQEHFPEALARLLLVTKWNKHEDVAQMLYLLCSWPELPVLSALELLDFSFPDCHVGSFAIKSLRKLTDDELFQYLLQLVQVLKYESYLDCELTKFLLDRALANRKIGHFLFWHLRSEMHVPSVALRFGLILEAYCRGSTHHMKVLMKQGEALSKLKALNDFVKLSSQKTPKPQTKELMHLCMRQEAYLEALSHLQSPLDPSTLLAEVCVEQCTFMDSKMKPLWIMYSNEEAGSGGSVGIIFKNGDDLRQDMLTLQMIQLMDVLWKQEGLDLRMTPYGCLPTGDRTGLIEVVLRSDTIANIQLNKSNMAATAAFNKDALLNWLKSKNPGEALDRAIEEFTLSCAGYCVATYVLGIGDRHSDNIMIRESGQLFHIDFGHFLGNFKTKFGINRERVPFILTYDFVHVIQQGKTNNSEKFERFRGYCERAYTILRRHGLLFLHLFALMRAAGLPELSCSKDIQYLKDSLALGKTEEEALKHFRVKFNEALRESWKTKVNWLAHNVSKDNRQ
PI3Kδ, sequence (P27986 whole entry partner): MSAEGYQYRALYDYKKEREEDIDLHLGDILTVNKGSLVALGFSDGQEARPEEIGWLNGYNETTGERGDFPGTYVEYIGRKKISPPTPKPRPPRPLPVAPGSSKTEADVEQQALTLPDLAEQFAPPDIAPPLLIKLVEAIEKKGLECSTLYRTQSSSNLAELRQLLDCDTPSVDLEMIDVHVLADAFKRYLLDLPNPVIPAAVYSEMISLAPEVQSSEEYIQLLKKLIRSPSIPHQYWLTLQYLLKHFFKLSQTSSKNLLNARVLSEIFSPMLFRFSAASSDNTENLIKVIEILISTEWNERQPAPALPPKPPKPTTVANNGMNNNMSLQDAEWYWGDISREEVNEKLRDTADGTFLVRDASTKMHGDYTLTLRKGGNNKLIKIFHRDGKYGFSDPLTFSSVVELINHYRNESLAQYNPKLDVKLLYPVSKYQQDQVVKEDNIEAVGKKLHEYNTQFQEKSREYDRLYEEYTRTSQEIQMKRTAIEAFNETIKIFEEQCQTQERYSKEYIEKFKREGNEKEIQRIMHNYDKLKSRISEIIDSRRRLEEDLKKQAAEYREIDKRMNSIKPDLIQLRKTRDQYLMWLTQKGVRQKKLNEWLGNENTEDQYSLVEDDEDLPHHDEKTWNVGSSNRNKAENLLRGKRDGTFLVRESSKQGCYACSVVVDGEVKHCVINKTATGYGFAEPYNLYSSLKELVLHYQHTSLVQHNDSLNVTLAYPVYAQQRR
PI3Kβ, sequence (P42338 whole entry): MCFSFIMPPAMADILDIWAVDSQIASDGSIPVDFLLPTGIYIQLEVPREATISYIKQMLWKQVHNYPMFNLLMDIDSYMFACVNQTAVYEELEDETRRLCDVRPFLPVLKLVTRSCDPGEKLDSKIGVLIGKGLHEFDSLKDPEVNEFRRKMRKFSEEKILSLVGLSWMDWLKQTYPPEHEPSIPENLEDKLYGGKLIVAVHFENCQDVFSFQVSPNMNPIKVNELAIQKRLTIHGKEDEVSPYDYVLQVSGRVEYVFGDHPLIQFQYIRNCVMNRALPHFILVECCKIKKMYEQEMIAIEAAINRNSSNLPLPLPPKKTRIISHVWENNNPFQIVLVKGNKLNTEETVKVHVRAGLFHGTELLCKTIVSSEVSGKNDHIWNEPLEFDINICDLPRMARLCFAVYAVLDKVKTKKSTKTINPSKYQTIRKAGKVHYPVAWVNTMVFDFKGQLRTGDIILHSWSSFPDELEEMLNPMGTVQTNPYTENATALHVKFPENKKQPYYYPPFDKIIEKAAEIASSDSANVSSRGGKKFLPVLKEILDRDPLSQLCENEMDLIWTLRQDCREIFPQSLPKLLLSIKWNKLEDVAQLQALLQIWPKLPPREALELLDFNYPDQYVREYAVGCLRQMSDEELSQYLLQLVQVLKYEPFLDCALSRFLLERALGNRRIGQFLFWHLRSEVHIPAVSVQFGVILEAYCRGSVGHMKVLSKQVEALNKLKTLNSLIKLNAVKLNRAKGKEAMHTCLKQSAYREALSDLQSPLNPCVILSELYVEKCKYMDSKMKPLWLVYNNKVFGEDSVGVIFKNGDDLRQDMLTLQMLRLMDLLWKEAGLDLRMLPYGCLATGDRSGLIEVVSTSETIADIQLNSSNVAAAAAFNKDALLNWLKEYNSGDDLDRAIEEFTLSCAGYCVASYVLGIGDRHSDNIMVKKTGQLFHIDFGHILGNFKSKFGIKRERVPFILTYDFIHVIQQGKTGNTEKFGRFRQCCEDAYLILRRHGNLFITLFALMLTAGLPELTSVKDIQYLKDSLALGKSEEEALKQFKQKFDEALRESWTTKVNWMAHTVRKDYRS
PI3Kβ, sequence (P27986 whole entry partner): as the sequence (P27986 whole entry partner) above

SMILES	IC50 (PI3Kβ; [2])	IC50 (PI3Kβ; [3])	IC50 (PI3Kδ; [4])	IC50 (PI3Kδ; [5])	IC50 [1]	IC50 (PI3Kβ; IC50 versus PI3Kβ)	IC50 (PI3Kβ; read-out: PI3Kβ inhibition, IC50)
O=C(c1cc([C@H]2CCCN2c2cccc(F)c2)c2oc(N3CCOCC3)cc(=O)c2c1)N1CCC1 [Example 1.08, 6-(azetidine-1-carbonyl)-8-[(2R)-(1-(3-fluorophenyl)pyrrolidin-2-yl)]-2-morpholino-4H-chromen-4-one]	~6 nM	6 nM	~6 nM	6 nM	~2 nM	–	–
CN(C)C(=O)c1cc(C2CCCN2c2cc(F)cc(C#N)c2)c2oc(N3CCOCC3)cc(=O)c2c1 (centres unmarked) [Example 2.02, 8-(1-(3-cyano-5-fluorophenyl)pyrrolidin-2-yl)-N,N-dimethyl-2-morpholino-4-oxo-4H-chromene-6-carboxamide]	–	13 nM	–	16 nM	–	–	–
O=C(c1cc([C@H]2CCCN2c2cccc(F)c2)c2oc(N3CCOCC3)cc(=O)c2c1)N1CCOCC1 [Example 1.07, 8-[(2R)-(1-(3-fluorophenyl)pyrrolidin-2-yl)]-6-(morpholine-4-carbonyl)-2-morpholino-4H-chromen-4-one]	–	6 nM	~5 nM	5 nM	~2 nM	~6 nM	–
CN(C)C(=O)c1cc(C2CCCN2c2ccc(F)cc2)c2oc(N3CCOCC3)cc(=O)c2c1 (racemic) [Example 2.04, 8-(1-(4-fluorophenyl)pyrrolidin-2-yl)-N,N-dimethyl-2-morpholino-4-oxo-4H-chromene-6-carboxamide]	–	17 nM	–	19 nM	–	–	–
O=C(c1cc(C2CCCN2c2cc(F)cc(F)c2)c2oc(N3CCOCC3)cc(=O)c2c1)N1CC[S+]([O-])CC1 (centres unmarked) [Example 1.04, 8-[1-(3,5-difluorophenyl)pyrrolidin-2-yl]-2-morpholino-6-[(1-oxidothiomorpholin-4-yl)carbonyl]-4H-chromen-4-one]	~11 nM	11 nM	~24 nM	24 nM	~5 nM	–	–
COc1cccc(N2CCCC2c2cc(C(=O)N(C)C)cc3c(=O)cc(N4CCOCC4)oc23)c1 (centres unmarked) [Example 2.01, 8-(1-(3-methoxyphenyl)pyrrolidin-2-yl)-N,N-dimethyl-2-morpholino-4-oxo-4H-chromene-6-carboxamide]	–	10 nM	–	15 nM	–	–	–
C[C@@H]1CN(c2cc(=O)c3cc(C(=O)N4CCOCC4)cc(C4CCCN4c4cc(F)cc(F)c4)c3o2)CCO1 (stereo partly drawn) [Example 3.00, 8-(1-(3,5-difluorophenyl)pyrrolidin-2-yl)-2-((R)-2-methylmorpholino)-6-(morpholine-4-carbonyl)-4H-chromen-4-one]	~11 nM	11 nM	~18 nM	18 nM	~3 nM	–	–
O=C(c1cc(C2CCCN2c2cc(F)cc(F)c2)c2oc(N3CCOCC3)cc(=O)c2c1)N1CCC(O)CC1 (centres unmarked) [Example 1.02, 8-(1-(3,5-difluorophenyl)pyrrolidin-2-yl)-6-(4-hydroxypiperidine-1-carbonyl)-2-morpholino-4H-chromen-4-one]	–	–	–	14 nM	–	–	–
CN(C)C(=O)c1cc([C@H]2CCCN2c2cccc(F)c2)c2oc(N3CCOCC3)cc(=O)c2c1 [Example 1.06, 8-[(2R)-(1-(3-fluorophenyl)pyrrolidin-2-yl)]-N,N-dimethyl-2-morpholino-4-oxo-4H-chromene-6-carboxamide]	~7 nM	7 nM	~7 nM	7 nM	~1 nM	–	–
CN(C)C(=O)c1cc(C2CCCN2c2cc(F)cc(F)c2)c2oc(N3CCOCC3)cc(=O)c2c1 (centres unmarked) [Example 1.00, 8-[1-(3,5-difluorophenyl)pyrrolidin-2-yl]-N,N-dimethyl-2-morpholino-4-oxo-4H-chromene-6-carboxamide]	–	–	–	15 nM	–	–	–
O=C(c1cc(C2CCCN2c2cc(F)cc(F)c2)c2oc(N3CCOCC3)cc(=O)c2c1)N1CCOCC1 (racemic) [Example 1.03, 8-(1-(3,5-difluorophenyl)pyrrolidin-2-yl)-6-(morpholine-4-carbonyl)-2-morpholino-4H-chromen-4-one]	~12 nM	12 nM	~22 nM	22 nM	~2 nM	–	–
O=C(c1cc([C@H]2CCCN2c2cc(F)cc(F)c2)c2oc(N3CCOCC3)cc(=O)c2c1)N1CCC1 [Example 1.05, 6-(azetidine-1-carbonyl)-8-[(2R)-(1-(3,5-difluorophenyl)pyrrolidin-2-yl)]-2-morpholino-4H-chromen-4-one]	~7 nM	7 nM	~9 nM	9 nM	~1 nM	–	–
COc1cccc(N2CCC[C@@H]2c2cc(C(=O)N3CCOCC3)cc3c(=O)cc(N4CCOCC4)oc23)c1 [Example 1.11, 8-[(2R)-(1-(3-methoxyphenyl)pyrrolidin-2-yl)]-6-(morpholine-4-carbonyl)-2-morpholino-4H-chromen-4-one]	~9 nM	9 nM	~15 nM	15 nM	~8 nM	–	–
CN(CCO)C(=O)c1cc(C2CCCN2c2cc(F)cc(F)c2)c2oc(N3CCOCC3)cc(=O)c2c1 (centres unmarked) [Example 1.01, 8-(1-(3,5-difluorophenyl)pyrrolidin-2-yl)-N-(2-hydroxyethyl)-N-methyl-2-morpholino-4-oxo-4H-chromene-6-carboxamide]	–	–	–	16 nM	–	–	–
O=C(c1cc(C2CCCN2c2ccc(F)cc2)c2oc(N3CCOCC3)cc(=O)c2c1)N1CCOCC1 (racemic) [Example 1.12, 8-(1-(4-fluorophenyl)pyrrolidin-2-yl)-6-(morpholine-4-carbonyl)-2-morpholino-4H-chromen-4-one]	–	15 nM	–	32 nM	–	–	–
CN(C)C(=O)c1cc(C2CCCN2c2cccc(F)c2)c2oc(N3CCOCC3)cc(=O)c2c1 (centres unmarked) [Example 2.00, 8-(1-(3-fluorophenyl)pyrrolidin-2-yl)-N,N-dimethyl-2-morpholino-4-oxo-4H-chromene-6-carboxamide]	~9 nM	–	~12 nM	12 nM	~2 nM	–	9 nM
C[C@@H]1CN(c2cc(=O)c3cc(C(=O)N(C)C)cc(C4CCCN4c4cccc(F)c4)c3o2)CCO1 (stereo partly drawn) [Example 3.03, 8-(1-(3-fluorophenyl)pyrrolidin-2-yl)-N,N-dimethyl-2-((R)-2-methylmorpholino)-4-oxo-4H-chromene-6-carboxamide]	~10 nM	10 nM	~7 nM	7 nM	~1 nM	–	–
C[C@@H]1CN(c2cc(=O)c3cc(C(=O)N4CCOCC4)cc(C4CCCN4c4ccccc4)c3o2)CCO1 (stereo partly drawn) [Example 3.01, 2-((R)-2-methylmorpholino)-6-(morpholine-4-carbonyl)-8-(1-phenylpyrrolidin-2-yl)-4H-chromen-4-one]	–	14 nM	–	15 nM	~6 nM	–	–
CN1CCN(C(=O)c2cc([C@H]3CCCN3c3cc(F)cc(F)c3)c3oc(N4CCOCC4)cc(=O)c3c2)CC1 [Example 1.09, 8-[(2R)-(1-(3,5-difluorophenyl)pyrrolidin-2-yl)]-6-(4-methylpiperazine-1-carbonyl)-2-morpholino-4H-chromen-4-one]	–	–	–	14 nM	–	–	–
